Measured values published in PubChem BioAssay AID179 (DTP/NCI, 2004).
Active and inactive are the calls of the source.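 How the source made its calls: active means compounds giving half or more protection of infected cells from virus-caused growth loss, again on retest; inactive means the rest.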

System: CEM cells HIV-1 protection, formazan growth assay
Assay: NCI AIDS Antiviral Assay
Settings: for IC50: measured here: growth of uninfected CEM cells
Outline: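 Steps: treat uninfected and HIV-1-infected human CEM cells at five drug levels; quantify growth by soluble formazan; retest any compound reaching 50% protection; classify actives from the retest.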

SMILES | EC50 | IC50 | outcome
O=c1[nH]c(=O)n(C2OC(CO)C(O)C2O)c2ncc(-c3ccc(-c4ccccc4)cc3)nc12 (centres undefined) | > 20 µM | > 20 µM | –
COc1ccc(C2C(Cl)C(=O)N2NC(=O)c2ccc(N)cc2)cc1 (centres undefined) | > 200 µM | > 200 µM | –
CC1CCn2c(=S)[nH]c3cccc(c32)N1 (centres undefined) | 42.7 µM | 182 µM | –
N#CC(C#N)=Cc1ccc(SCc2ccc(Cl)cc2)cc1 | > 200 µM | 135 µM | –
CCCCCC1=C(c2ccc(OC)c(S(=O)(=O)N(C)C)c2)c2cc(S(=O)(=O)N(C)C)c(OC)cc2S1(=O)=O | > 32.4 µM | > 32.4 µM | –
O=C1NC(=O)C(=Cc2cccnc2)C(=O)N1 | > 200 µM | > 200 µM | –
CNC(=S)N/N=C/c1cccc(C)n1 | > 200 µM | 19.5 µM | –
CN(c1ccccc1)c1nc(=[N+]2CCCC2)ss1 | – | – | inactive
CC(=O)CC(=O)Nc1ccccc1.CC(=O)CC(=O)Nc1ccccc1.[Cu] | > 200 µM | 17.4 µM | –
Oc1cc(Cl)cc2cc(Br)cnc12 | – | – | inactive
CCCCCCCCCCCCCCCCC(C(=O)OC)S(=O)(=O)O (centres undefined) | > 200 µM | 123 µM | –
CCCC1CC(=O)NC(=O)C1C(=O)OC(C)(C)C (centres undefined) | > 200 µM | > 200 µM | –
C/C1=C2\CC(OC3OCC(O)C(O)C3O)C(C)C2C/C=C(/C=O)[C@H]2C[C@@]3(C)CCC(C(C)C)C3CC12 (some centres undefined) | > 93.3 µM | > 93.3 µM | –
CC(C)CC1NC(CC(C)C)N2C(CC(C)C)N12 (centres undefined) | > 39.8 µM | > 39.8 µM | –
C/C(O)=C(\C=NC(=S)c1cccnc1)C(=O)Nc1ccccc1C | > 200 µM | > 200 µM | –
CC(=O)/C(C)=C(/C)[O-].CC(=O)/C(C)=C(/C)[O-].NCCNCCCNC(=O)c1cccc2cc3ccccc3nc12.[Co+3].[O-][Cl+3]([O-])([O-])[O-] | > 100 µM | 3.47 µM | –
Cc1cc2c(=O)cc(-c3ccc(Cl)c(Cl)c3)oc2c(C(=O)O)c1C | – | – | inactive
CCCCCCCCCCCOc1ccc(C(=O)C(=O)c2ccc(OCCCCCCCCCCC)c(OCCCCCCCCCCC)c2)cc1OCCCCCCCCCCC | > 10.5 µM | > 10.5 µM | –

SMILES | EC50 | IC50 | outcome
CCCCS(=O)(=O)O | > 200 µM | > 200 µM | –
CC(C)C1COC(c2cccc(C3=N[C@@H](C(C)C)CO3)n2)=N1 (some centres undefined) | > 24 µM | > 24 µM | –
Cc1cn2cc(-c3cccs3)nc2s1 | > 200 µM | 87.1 µM | –
CCC(=O)CCCC=C(c1cc(Cl)c(OC)c(C(=O)CC)c1)c1cc(Cl)c(OC)c(C(=O)CC)c1 | > 200 µM | 6.31 µM | –
C=CCNC(=O)ON1C(=O)CCC1=O | > 1260 µM | > 1260 µM | –
COCCc1c(C)c(C#N)c2n(C)c3ccccc3n2c1=O | > 200 µM | > 200 µM | –
CCOC(=O)C1=[N+]([O-])OC2=C(O)CCCC21 (centres undefined) | – | – | inactive
O=C(O)c1cc2cccc(S(=O)(=O)O)c2cc1O | > 200 µM | > 200 µM | –
Cc1nc(-n2[nH]c(C)c(CCO)c2=O)[nH]c(=O)c1CCO | – | – | inactive
COc1ccc(-n2nc(C)ccc2=O)cc1 | > 1150 µM | 776 µM | –
Cn1c2c(c3ccccc31)CCN(CCCCN1CCN(c3ccccc3)CC1)C2=O | > 30.9 µM | > 30.9 µM | –
CC(=O)N1CCCCCC1=O | > 1620 µM | > 1620 µM | –
CCCOC(=O)CCC(NC(=O)c1ccc(Nc2nc3ccccc3nc2-c2cccs2)cc1)C(=O)OCCC (centres undefined) | > 4.9 µM | > 4.9 µM | –
CC(C)(C)OC(=O)NC(CSSCC(NC(=O)OC(C)(C)C)C(=O)O)C(=O)O (centres undefined) | > 200 µM | > 200 µM | –
Cn1nc(NC(=O)c2cc(NC(=O)Nc3cc(C(=O)Nc4cc(C(=O)Nc5ccc6cc(S(=O)(=O)O)cc(S(=O)(=O)O)c6c5)n(C)n4)n(C)n3)nn2C)cc1C(=O)Nc1ccc2cc(S(=O)(=O)O)cc(S(=O)(=O)O)c2c1 | 5.13 µM | > 100 µM | –
C/C(=N\NC(N)=S)c1ccc(C2CCCCC2)cc1 | – | – | inactive
CCCCCCCCCCCCCCCCOC1N(C2CC(N=[N+]=[N-])C(CO)O2)C(=O)NC(=O)[C@]1(C)Br (some centres undefined) | > 200 µM | 11 µM | –
